Assay: Photoisomerization kinetics and quantum yields of the protonated forms (UV-vis)
Type: physicochemical
Conditions: for k E-PH+ to Z-PH+ photoisomerization: pH 6 (pH 5 for P bH·Cl); for Φ Z→E photoisomerization quantum yield: irradiation at 440 nm
Description: Photoisomerization studies were subsequently carried out in acidic medium (pH = pK a – 2) in order to assess the photoresponse of the protonated species. Under these conditions, the anticipated photoisomerization of the thermally stable E-P a–dH^+ species was investigated by UV–vis absorption spectroscopy under irradiation at 254 nm. […] It is noteworthy that the irradiation wavelength can be extended to 365 nm, yielding virtually the same observations as for 254 nm irradiation (see footnotes of Table ). Irradiation also produced clear NMR spectral changes that support the occurrence of the E→Z isomerization. In essence, the signals Hf–h of the phenyl moiety were only slightly affected, whereas those of the pyridinium and acylhydrazone fragments shifted markedly, consistent with the formation of an intramolecular hydrogen bond in the Z-P a–cH^+ species. The reverse Z→E transformation of the protonated forms P a–cH^+ was also achieved upon irradiation at λ > 420 nm, giving lower quantum yields and less favorable PSDs (Figures S145–S147, S149–154, S1).
5. Isomerization Photochemical Data.
5.1. E-P a-cH+→Z-P a-cH+ photoisomerization kinetics.
(§1) Figure S138. Left: variations in the absorption spectrum of P aH·Cl (20.6 µM, pH = 6) upon irradiation at 254 nm; the absorption spectrum of the E-form is shown in red; the photostationary state is in blue. Right: Kinetics (monitored at 320 nm) for the E-P aH+ to Z-P aH+ photoisomerization (20.6 µM) upon irradiation at 254 nm (I 0 = 1.37 × 10 –7 mol/s); k = 1.55 × 10 –2 […]
as §1, with “S139.” for “S138.”, “(17.5” for “(20.6”, “365” for “254”, “400” for “320”, “2.6” for “1.37”, “6.4” for “1.55”
Figure S140. Left: variations in the absorption spectrum of P bH·Cl (7.9 µM, pH = 5) upon […]
state is in blue. Right: Kinetics (monitored at 370 nm) for the E-P bH+ to Z-P bH+ photoisomerization (7.9 µM) upon irradiation at 254 nm (I 0 = 1.41 × 10 –7 mol/s); k = 4.91 × 10 –2 […]
Figure S141. Left: variations in the absorption spectrum of P bH·Cl (10 µM, pH = 5) upon […]
state is in blue. Right: Kinetics (monitored at 420 nm) for the E-P bH+ to Z-P bH+ photoisomerization (10 µM) upon irradiation at 365 nm (I 0 = 2.0 × 10 –7 mol/s); k = 3.0 × 10 –2 s–1.
Figure S142. Left: variations in the absorption spectrum of P cH·Cl (9 µM, pH = 6) upon […]
state is in blue. Right: Kinetics (monitored at 377 nm) of the E-P cH+ to Z-P cH+ photoisomerization […]
Figure S143. Left: variations in the absorption spectrum of P cH·Cl (10 µM, pH = 6) upon […]
state is in blue. Right: Kinetics (monitored at 410 nm) of the E-P cH+ to Z-P cH+ photoisomerization

[1] = irradiation at 254 nm (I0 1.37–1.41 × 10–7 mol/s)
[2] = irradiation at 254 nm, pH 6, error ± 20%
[3] = irradiation at 365 nm (I0 2.0–2.6 × 10–7 mol/s)

| Structure (SMILES) | k E-PH+ to Z-PH+ photoisomerization [1] | Φ E→Z photoisomerization quantum yield [2] | Φ E→Z photoisomerization quantum yield (irradiation at 365 nm) | k E-PH+ to Z-PH+ photoisomerization [3] | Φ Z→E photoisomerization quantum yield (pH 6, error ± 20%) | E→Z photoisomerization of the protonated form (UV-vis changes) (irradiation at 254 nm, acidic medium pH = pKa – 2) |
| --- | --- | --- | --- | --- | --- | --- |
| O=C(C=NNc1cc[n+](-c2ccccc2)cc1)c1ccccc1 [P cH^+] | 4.90 10^–2 s^–1 | 0.34 | 0.34 | 2.0 10^–2 s^–1 | 0.008 | – |
| C[n+]1ccc(-c2ccc(NN=CC(=O)c3ccccc3)cc2)cc1 [P dH^+] | – | – | – | – | – | no detectable changes |
| C[n+]1ccc(NN=CC(=O)c2ccccc2)cc1 [P aH^+] | 1.55 10^–2 s^–1 | 0.20 | 0.22 | 6.4 10^–2 s^–1 | 0.001 | – |
| C[n+]1ccc(NN=CC(=O)c2ccccc2)c2ccccc21 [P bH^+] | 4.91 10^–2 s^–1 | 0.38 | 0.35 | 3.0 10^–2 s^–1 | 0.002 | – |
